Assay [1] can be described thus: Competitive antagonist activity at alpha-adrenergic receptor in New Zealand rabbit aorta assessed as inhibition of methoxamine-induced contraction incubated for 1 hr. The class given is tissue-based, Oryctolagus cuniculus.
Assay [2] has as its target Adrenergic receptor alpha. Put plainly: Displacement of [3H]dihydroazapetine from alpha-adrenoreceptor in rat vas deferens. In general terms: Loss of bound radioactivity is the signal in a displacement assay; it reports binding, not function.

Molecules are shown by their SMILES.

Regarding `CCN(CC)C[C@H]1COc2ccccc2O1`, in assay [1], the pA2 (commonly the negative logarithm of the molar antagonist concentration that doubles the agonist concentration needed for the same response) is 5.6. Besides, in assay [2], the pKd – broadly, −log10 of the Kd, conventionally taken in molar units – was 6.21. As to `CCN(CC)C[C@@H]1COc2ccccc2O1`, the pA2 in assay [1] amounted to 5.26.

`c1ccc2c(c1)OC[C@H](CN1CCCCC1)O2`: the pA2 in assay [1] came out at 7.12.

In the case of `c1ccc2c(c1)OC[C@@H](CN1CCCCC1)O2`, the pA2 in assay [1] was found to be 5.86. Turning to `c1ccc2c(c1)OC[C@H](CN1CCN(C[C@H]3COc4ccccc4O3)CC1)O2`, in assay [1], the pA2 was 7.66. The compound further showed a pKd in assay [2] of 6.85. `c1ccc2c(c1)OC[C@@H](CN1CCN(C[C@@H]3COc4ccccc4O3)CC1)O2`: in assay [1], the pA2 is 6.38. In addition, the pKd in assay [2] was 6.25. On to `c1ccc2c(c1)OCC(CN1CCN(CC3COc4ccccc4O3)CC1)O2` (stereo not given), for which the pA2 in assay [1] is on record as 7.53.
